For orientation: Ki means the dissociation constant of the complex between target and ligand, obtained from inhibition or displacement.

One test concerns the target T1, Adenosine receptor A1 (Rattus norvegicus, UniProt P25099).
T1 sequence (P25099 whole entry): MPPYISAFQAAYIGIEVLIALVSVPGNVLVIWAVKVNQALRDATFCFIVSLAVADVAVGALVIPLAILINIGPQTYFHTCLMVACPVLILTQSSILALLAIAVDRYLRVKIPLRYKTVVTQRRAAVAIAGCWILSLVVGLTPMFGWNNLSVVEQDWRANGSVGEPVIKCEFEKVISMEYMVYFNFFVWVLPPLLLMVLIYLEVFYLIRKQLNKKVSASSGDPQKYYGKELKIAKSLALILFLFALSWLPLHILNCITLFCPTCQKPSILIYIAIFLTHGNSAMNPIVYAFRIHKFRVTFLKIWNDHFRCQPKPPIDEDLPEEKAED
The experiment in a line: Binding affinity towards Adenosine A1 receptor of rat cerebral cortex using [3H]-DPCPX as radioligand.

The target of another test is Adenosine receptor A2a (Rattus norvegicus, UniProt P30543). The experiment in a line: Binding affinity towards Adenosine A2A receptor of rat brain tissues using [3H]ZM-241385 as radioligand.
Adenosine receptor A2a, sequence (P30543 whole entry): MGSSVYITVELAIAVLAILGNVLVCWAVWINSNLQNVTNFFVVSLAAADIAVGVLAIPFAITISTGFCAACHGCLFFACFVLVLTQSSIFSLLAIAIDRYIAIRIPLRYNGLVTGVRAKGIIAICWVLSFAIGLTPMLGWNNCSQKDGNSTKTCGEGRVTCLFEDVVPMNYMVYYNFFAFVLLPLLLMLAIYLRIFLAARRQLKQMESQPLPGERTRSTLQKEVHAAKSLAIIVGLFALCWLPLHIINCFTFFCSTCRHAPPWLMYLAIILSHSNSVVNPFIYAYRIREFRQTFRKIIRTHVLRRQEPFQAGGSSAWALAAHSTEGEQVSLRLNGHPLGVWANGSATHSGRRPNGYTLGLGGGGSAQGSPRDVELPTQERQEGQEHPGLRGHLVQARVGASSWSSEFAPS

As to `Nc1nc(C#CCOc2ccccc2)cn2nc(-c3ccco3)nc12`, the Ki on Adenosine receptor A1 came to 530 nM; on Adenosine receptor A2a, 390 nM. Taken in the same sequence, the figures for `Nc1nc(C#CC2(N)CCCCC2)cn2nc(-c3ccco3)nc12` were 35 nM and 210 nM. On the same counts, the results for `CC(O)(C#Cc1cn2nc(-c3ccco3)nc2c(N)n1)c1ccc(O)cc1` (centres undefined) are 66 nM and 42 nM. With `Nc1nc(C#CC(O)c2ccccc2)cn2nc(-c3ccco3)nc12` (centres undefined), the results for the Ki at Adenosine receptor A1 and on Adenosine receptor A2a were 2400 nM and 340 nM, respectively. `CC(O)(C#Cc1cn2nc(-c3ccco3)nc2c(N)n1)c1cccc(C(F)(F)F)c1F` (centres undefined) gave a Ki at Adenosine receptor A2a of 1600 nM. Turning to `Nc1nc(C#CC(O)c2csc3ccccc23)cn2nc(-c3ccco3)nc12` (centres undefined), the Ki was found to be 73 nM on Adenosine receptor A1 and 260 nM at Adenosine receptor A2a. On the same counts, the results for `Nc1nc(C#CC(O)C2(O)CCCC2)cn2nc(-c3ccco3)nc12` (centres undefined) are 72 nM and 30 nM. As to `CC(O)(C#Cc1cn2nc(-c3ccco3)nc2c(N)n1)c1ccc([N+]2=CC=NC2)cc1` (centres undefined), the values for the inhibition constant Ki at Adenosine receptor A1 and at Adenosine receptor A2a were 110 nM and 33 nM, respectively.

At Adenosine receptor A2a, `CN(C)c1ccc(C(O)(C#Cc2cn3nc(-c4ccco4)nc3c(N)n2)C(F)(F)F)cc1` (centres undefined) yielded a Ki of 1100 nM. On to `CC(C)CCC(C)(O)C#Cc1cn2nc(-c3ccco3)nc2c(N)n1` (centres undefined), for which the figures for the inhibitory constant (Ki) at Adenosine receptor A1 and on Adenosine receptor A2a were 24 nM and 3.7 nM, respectively. On the same counts, the results for `CC(O)(C#Cc1cn2nc(-c3ccco3)nc2c(N)n1)Cc1ccncc1` (centres undefined) are 100 nM and 1.1 nM.

`Nc1nc(C#CCOc2ccc(F)c(Cl)c2)cn2nc(-c3ccco3)nc12`: the Ki on Adenosine receptor A1 was found to be 4300 nM; at Adenosine receptor A2a, 310 nM. On to `Nc1nc(C#Cc2ccc(F)cc2F)cn2nc(-c3ccco3)nc12`, for which the Ki on Adenosine receptor A2a is greater than 1000 nM. For the compound `CC(C#Cc1cn2nc(-c3ccco3)nc2c(N)n1)OC(C)(C)C` (centres undefined), the inhibition constant Ki at Adenosine receptor A1 was 96 nM; on Adenosine receptor A2a, 37 nM. Taken in the same sequence, the figures for `CC(C)C(O)(C#Cc1cn2nc(-c3ccco3)nc2c(N)n1)C(C)C` were 8 nM and 7 nM. For the compound `Nc1nc(C#CCC2CCCCC2)cn2nc(-c3ccco3)nc12`, the inhibition constant Ki at Adenosine receptor A1 stood at 680 nM; on Adenosine receptor A2a, 280 nM.

As to `CCC(O)(C#Cc1cn2nc(-c3ccco3)nc2c(N)n1)CC`, the Ki was 33 nM at Adenosine receptor A1 and 9 nM on Adenosine receptor A2a.

For `CC(O)(C#Cc1cn2nc(-c3ccco3)nc2c(N)n1)c1ccccc1` (centres undefined), the inhibition constant (Ki) on Adenosine receptor A1 was determined as 41 nM; on Adenosine receptor A2a, 12 nM. Taken in the same sequence, the figures for `Cn1nc(OCC#Cc2cn3nc(-c4ccco4)nc3c(N)n2)cc1C(F)(F)F` were 1800 nM and 89 nM. On the same counts, the results for `Nc1nc(C#CC(O)C2(O)CCCCC2)cn2nc(-c3ccco3)nc12` (centres undefined) are 11 nM and 7.3 nM.

For the compound `Nc1nc(C#CC(O)C2(O)CCC2)cn2nc(-c3ccco3)nc12` (centres undefined), the values for the Ki at Adenosine receptor A1 and on Adenosine receptor A2a were 2.5 nM and 12 nM, respectively. Consider `Nc1nc(C#CC(O)(c2ccccc2)C(F)(F)F)cn2nc(-c3ccco3)nc12` (centres undefined), for which the figures for the Ki at Adenosine receptor A1 and on Adenosine receptor A2a were 2200 nM and 74 nM, respectively. On the same counts, the results for `Nc1nc(C#CCOc2cccnc2)cn2nc(-c3ccco3)nc12` are 110 nM and 92 nM. On to `CC(O)(C#Cc1cn2nc(-c3ccco3)nc2c(N)n1)c1ccncc1` (centres undefined), for which the values for the Ki on Adenosine receptor A1 and on Adenosine receptor A2a were 170 nM and 25 nM, respectively.

As for `Nc1nc(C#CCO)cn2nc(-c3ccco3)nc12`, the Ki on Adenosine receptor A1 and on Adenosine receptor A2a was greater than 500 nM in each case. As for `CC(O)(C#Cc1cn2nc(-c3ccco3)nc2c(N)n1)c1csc2ccccc12` (centres undefined), the Ki was 340 nM at Adenosine receptor A1 and 33 nM on Adenosine receptor A2a.

The values above are taken from ChEMBL document CHEMBL1144261, “Synthesis of alkyne derivatives of a novel triazolopyrazine as A(2A) adenosine receptor antagonists” (Bioorg Med Chem Lett, 2005).
